This note sets out measurements from US20060247165A1, “Methods and compositions for encapsulation of cells” (priority 2005, published 2006).

Residues, ends and D or L forms follow the SMILES beside them. *: point of attachment. Butanoyl(4-pyren-1-yl) = O=C(CCCc1ccc2ccc3cccc4ccc1c2c34)*; Palmitoyl = CCCCCCCCCCCCCCCC(=O)*

One series deals with spinal cord. Conditions: rat, in vivo. As for the experimental part: Spinal Cord Injection Procedure. Rats were anesthetized using 45 mg/kg Pentobarbital (NEMBUTAL). A laminectomy was performed to expose spinal segment T13 and a stereotaxic micromanipulator (Kopf Instruments) with a Hamilton syringe attached to a 32 gauge needle was used to inject 6 μl at 333 nl/sec of isoosmotic glucose (vehicle) or peptide amphiphile into the spinal cord at T10 at a depth of 1.5 mm. The needle was kept inside the site of injection for 2 minutes after each injection in order to allow the IKVAV-PA to gel without disturbance.

The subject of another series is injured spinal cord. The experiment in a line: Stability of fluorescent peptide amphiphile gel in injured spinal cord. The format is in vivo, mouse. An excerpt:
Mouse spinal cord injuries, amphiphile injections and animal care. All animal care and surgical interventions were undertaken in strict accordance with the Public Health Service Policy on Humane Care and Use of Laboratory Animals, Guide for the Care and Use of Laboratory Animals (Institute of Laboratory Animal Resources, National Research Council, 1996). The Institutional Animal Care and Use Committee approved of all operative procedures. Female, adult 129 SvJ mice (10 weeks old; Jackson Labs, USA) were anesthetized using avertin intraperitoneally. A laminectomy was performed and the spinal cord was compressed dorsoventrally at T10 by the extradural application of a modified Kerr-Lougheed aneurysm clip for 1 min (FEJOTA mouse clip, University Health Network, Canada). The skin was sutured using AUTOCLIP (9 mm, Becton Dickinson). Post-operatively, animals were kept under a heat-lamp to maintain body temperature. […]
Peptide amphiphile solution or vehicle was injected 24 hours after the spinal cord injury using borosilicate glass capillary micropipettes (Sutter Instruments) (OD: 100 μm). […] The micropipette was manually inserted to a depth of 750 μm measured from the dorsal surface of the cord and 2.5 μl of the diluted amphiphile solution or vehicle was injected at the rate of 2.5 μl/min. […]

For series [1], the system named is neural progenitor cells (NPCs). The experiment in a line: NPC differentiation on two-dimensional coated substrates. As to conditions: for differentiation into neurons on 2D substrate: cells plated for 1 day. The format is cell-based, mouse. As for the experimental part:
Two-dimensional cultures. For IKVAV peptide experiments, the same 12 mm glass coverslips used for the three-dimensional experiments were soaked in ethanol to encourage hydrophilicity, then spin-coated with 50 μL of a 1 mg/mL IKVAV peptide solution. For IKVAV-PA experiments, the coverslips were coated with PDL (e.g., to encourage adsorption) and subsequently with IKVAV-PA solution. In both cases, the cover slips were allowed to dry overnight and then washed three times with distilled water to remove weakly adherent material before the addition of cell suspension.
NPC differentiation on a two dimensional (2D) substrate coated with IKVAV-PA nanofibers was investigated.

The test system of series [2] is neural progenitor cells (NPCs). The experiment in a line: Immunocytochemistry of NPC differentiation (β-tubulin III neurons, GFAP astrocytes) in 3D scaffolds. The series is classed as cell-based, mouse. As for the experimental part:
(§1) Cell Culture and In Vitro Encapsulation in IKVAV-PA nano-networks. Neural progenitor cells (NPCs) were cultured as previously described (See, e.g., Zhu et al., J. Neurosci. Res. 59, 312 (2000)). Briefly, the cortices of E13 mouse embryos were dissected and plated on un-treated petri dishes in DMEM/F12 media supplemented with bFGF (10 ng/ml). After four days, mechanically and enzymatically dissociated NPCs and undissociated neurospheres (e.g., undissociated NPC aggregates) were plated onto appropriate substrates (e.g., encapsulated in IKVAV-peptide amphiphile (PA), EQS-PA, or alginate gels, or cultured on laminin, poly-D-lysine, or IKVAV peptide coated cover slips). In all cases this was taken as 0 days in vitro. […]
(§2) Immunocytochemistry. […] Cell imaging was done with a high resolution Cool Snap camera attached to a Nikon TE-2000 fluorescence microscope interfaced with a PC running MetaView imaging software, or an Axiocam camera attached to a Zeiss Axiovert 200 fluorescence microscope interfaced with a PC running AxioVision imaging software.
(§3) Cell Counts. Randomly selected fields of view were imaged for different experimental conditions and cells counted using ImageJ (Scion Corporation) morphometric analysis software. […]

Series [3] relates to neural progenitor cells (NPCs). The experiment in a line: Cell body area and neurite length of neurons differentiated from NPCs. As to conditions: after 1 day. The format is cell-based, mouse. Here is the method: as §1, §2, §3

With `CCCCCCCCCCCCCCCC(=O)N[C@@H](C)C(=O)N[C@@H](C)C(=O)N[C@@H](C)C(=O)N[C@@H](C)C(=O)NCC(=O)NCC(=O)NCC(=O)N[C@@H](CCC(=O)O)C(=O)N[C@H](C(=O)N[C@@H](CCCCN)C(=O)N[C@H](C(=O)N[C@@H](C)C(=O)N[C@H](C(=O)O)C(C)C)C(C)C)[C@@H](C)CC` [IKVAV-PA] (Palmitoyl-AAAAGGGEIKVAV-OH), in the series on spinal cord, the “toxic effects after spinal cord injection” value is on record as “no toxic effects”.
Take `CC[C@H](C)[C@H](NC(=O)[C@H](CCC(=O)O)NC(=O)[C@H](C)NC(=O)[C@H](C)NC(=O)[C@H](C)NC(=O)[C@H](CC(C)C)NC(=O)[C@H](CO)NC(=O)[C@H](CC(C)C)NC(=O)[C@H](CO)NC(=O)CCCc1ccc2ccc3cccc4ccc1c2c34)C(=O)N[C@@H](CCCCN)C(=O)N[C@H](C(=O)N[C@@H](C)C(=O)N[C@H](C(=O)O)C(C)C)C(C)C` [PA2] ({Butanoyl(4-pyren-1-yl)}-SLSLAAAEIKVAV-OH): the “presence of gel in injured cord” value with injured spinal cord (5 weeks after injection, 1% solution in isotonic glucose) is listed as “remnants could still be seen”. The “lifetime of the nanofiber scaffold in vivo” value in the series on injured spinal cord (mouse, in vivo) is given as “on the order of weeks”.
Consider “isolucine-lysine-valine-alanine-valine [IKVAV peptide]”, for which, in series [1], the “expression of β-tubulin III and/or GFAP on 2D coated substrate” value is “nearly nonquantifiable amounts” and the “differentiation into neurons on 2D substrate” value is recorded as “did not lead to the significant neuron differentiation”. Besides, the “neuron differentiation on titration into EQS-PA scaffolds” value in series [2] (increasing amounts of soluble peptide, 1 day) is “failed to induce the extent of neuron differentiation”.
As for laminin, in series [1], the “differentiation into neurons on 2D substrate” value is given as “did not lead to the significant neuron differentiation”. In addition, in series [3], the neurite development entry was “had not developed neurites”. Also, the “GFAP expression relative to cells cultured on nanofiber networks” value in series [2] (coated substrates) was “significantly greater”.
